target: T1, human GluN1^FA,TL/GluN3A receptors (Homo sapiens, UniProt Q8TCU5); assay: Two-electrode voltage-clamp recordings of GluN1^FA,TL/GluN3A receptors in Xenopus oocytes; type: cell-based; conditions: read-out: hGluN1^FA,TL/hGluN3A (100 × Idrug/Icontrol at 30 μM drug)
T1 construct: Human GluN3A (NP_597702.2) and rat GluN3B (NP_579842.2) were synthesized and subcloned into SP6 plasmids; expressed in transfected cells; host or cells: Xenopus laevis oocytes, cRNA injection (GluN1:GluN3 1:3)
From the text: cDNA encoding human wild-type (WT) GluN1-1a (GenBank accession numbers NP_015566, hereafter GluN1) and rat GluN1-1a (NP_058706.1) were synthesized and subcloned into pGEMHE plasmid; some experiments used the rat splice variant GluN1-4a (NP_001257531.1). Human GluN3A (NP_597702.2) and rat GluN3B (NP_579842.2) were synthesized and subcloned into SP6 plasmids. For most experiments, human GluN1 was co-expressed with human GluN3A, except for mutagenesis experiments where rat GluN1 was co-expressed with human GluN3A. Rat GluN1-4a was always expressed with rat GluN3B.
Defolliculated Xenopus laevis oocytes (stage V-VI) were obtained from Ecocyte BioScience (Austin, Texas), or prepared from commercially available Xenopus ovaries (Xenopus 1, Dexter, MI) as previously described (Hansen, et al., Mol. Pharmacol., 2013). A Drummond Nanoject II (Broomall, PA) was used to inject oocytes with cRNAs encoding GluN1 and GluN3 at a 1:3 ratio in RNase-free water. The cRNA was diluted as needed to give responses with amplitudes ranging between 200-2000 nA (0.2-10 ng total cRNA). Following cRNA injection, the oocytes were stored at 15-19° C. in Barth's solution that contained (in mM) 88 NaCl, 2.4 NaHCO3, 1 KCl, 0.33 Ca(NO3)2, 0.41 CaCl2), 0.82 MgSO4, and 5 Tris-HCl (pH 7.4 with NaOH), supplemented with 1 μg/ml streptomycin (Invitrogen, Carlsbad, CA) and 100 μg/ml gentamicin (Fisher Scientific, Pittsburgh, PA). Recordings were performed 2-5 days following cRNA microinjection at room temperature (23° C.) using a two-electrode voltage-clamp amplifier (OC725, Warner Instrument, Hamilton, CT). The signal was low-pass filtered at 10-20 Hz (4-pole, −3 dB Bessel) and digitized at the Nyquist rate using PCI-6025E or USB-6212 BNC data acquisition boards (National Instruments, Austin, TX) using EasyOocyte (http://www.easyoocyte.io/). Oocytes were placed in a custom-made chamber and continuously perfused (2.5 ml/min) with oocyte recording solution containing (in mM) 90 NaCl, 1 KCl, 10 HEPES, 0.5-1.0 BaCl2, and 0.01 EDTA (pH 7.4 with NaOH). Solutions were applied by gravity, and solution exchange was controlled through a rotary valve (Hamilton, Reno, NV). Recording electrodes were filled with 0.3-3.0 M KCl, and current responses were recorded at a holding potential of −40 mV.
Response (%)=(100−minimum)/(1+([concentration]/IC50)^nH)+minimum (2) • where nH is the Hill slope, IC50 is the concentration that produces a half-maximal effect, and minimum is the degree of residual inhibition at a saturating concentration of the negative allosteric modulator.
The afore-referenced compounds were screened in the same assay as EU1180-438 to determine their effects on hGluN1^FA,TL/hGluN3A receptors. Selected compounds that inhibited by more than 20% at the concentration at which they were initially evaluated (either 10 or 30 μM) were analyzed further, and a dose-response curve was generated to determine their IC50 values.

T1 sequence (Q8TCU5 24-1115, other chains not shown): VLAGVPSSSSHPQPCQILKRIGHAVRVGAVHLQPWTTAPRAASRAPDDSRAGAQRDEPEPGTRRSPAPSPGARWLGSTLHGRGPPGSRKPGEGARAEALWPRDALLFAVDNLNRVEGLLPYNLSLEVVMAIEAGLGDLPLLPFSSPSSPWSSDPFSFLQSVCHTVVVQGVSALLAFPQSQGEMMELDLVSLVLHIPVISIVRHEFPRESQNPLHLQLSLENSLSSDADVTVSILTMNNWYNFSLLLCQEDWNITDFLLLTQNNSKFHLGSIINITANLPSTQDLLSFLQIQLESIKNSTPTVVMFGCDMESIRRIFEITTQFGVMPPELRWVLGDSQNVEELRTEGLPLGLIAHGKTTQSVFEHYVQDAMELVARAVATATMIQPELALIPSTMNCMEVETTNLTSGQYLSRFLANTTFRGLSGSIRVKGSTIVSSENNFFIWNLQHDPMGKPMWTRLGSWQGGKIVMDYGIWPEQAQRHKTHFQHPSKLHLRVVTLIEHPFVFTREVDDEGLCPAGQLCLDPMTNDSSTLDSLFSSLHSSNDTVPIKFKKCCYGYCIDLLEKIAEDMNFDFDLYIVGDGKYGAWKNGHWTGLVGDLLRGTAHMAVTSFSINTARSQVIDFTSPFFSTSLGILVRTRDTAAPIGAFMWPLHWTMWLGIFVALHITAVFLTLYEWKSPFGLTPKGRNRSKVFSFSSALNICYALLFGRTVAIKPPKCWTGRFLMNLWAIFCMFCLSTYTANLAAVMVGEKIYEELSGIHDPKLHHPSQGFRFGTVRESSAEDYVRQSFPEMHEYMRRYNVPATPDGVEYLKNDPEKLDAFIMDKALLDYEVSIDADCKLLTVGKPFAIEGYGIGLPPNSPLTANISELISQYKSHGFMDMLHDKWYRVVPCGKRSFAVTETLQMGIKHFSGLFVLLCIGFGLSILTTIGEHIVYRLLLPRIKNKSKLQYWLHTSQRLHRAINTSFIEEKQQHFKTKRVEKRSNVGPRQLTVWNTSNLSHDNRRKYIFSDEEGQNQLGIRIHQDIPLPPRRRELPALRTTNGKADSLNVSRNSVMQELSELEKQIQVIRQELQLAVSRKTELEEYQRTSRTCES

| Structure (SMILES) | remaining activity at 30 µM [%] |
| --- | --- |
| COc1ccc(C(COc2cccc(C)n2)N2Cc3ccc(C(F)(F)F)cc3C2=O)c(F)c1 (centres unmarked) [EU1180-603, 2-(1-(2-Fluoro-4-methoxyphenyl)-2-((6-methylpyridin-2-yl)oxy)ethyl)-6-(trifluoromethyl)isoindolin-1-one] | 84 |
| COc1ccc(OCC(c2ccc(OC)c(OC)c2)N2Cc3ccc(C(F)(F)F)cc3C2=O)cc1 (centres unmarked) [EU1180-523, 2-(1-(3,4-Dimethoxyphenyl)-2-(4-methoxyphenoxy)ethyl)-6-(trifluoromethyl)isoindolin-1-one] | 104 |
| CC(C)Oc1ccc(C(COc2ccc(OC(F)(F)F)cc2)N2Cc3cc(F)ccc3C2=O)cc1 (centres unmarked) [EU1180-544, 5-fluoro-2-(1-(4-isopropoxyphenyl)-2-(4-(trifluoromethoxy)phenoxy)ethyl)isoindolin-1-one] | 98 |
| COc1ccc(OCC(c2ccc(OC)cc2)N2Cc3cc(Br)ccc3C2=O)cc1 (centres unmarked) [EU1180-519, 5-Bromo-2-(2-(4-methoxyphenoxy)-1-(4-methoxyphenyl)ethyl)isoindolin-1-one] | 90 |
| COc1ccc(OCC(c2c(F)cc(OC)cc2F)N2Cc3ccccc3C2=O)cc1 (centres unmarked) [EU1180-545, 2-(1-(2,6-Difluoro-4-methoxyphenyl)-2-(4-methoxyphenoxy)ethyl)isoindolin-1-one] | 74 |
| COc1ccc(OCC(c2ccc(OC)c(OC)c2)N2Cc3cc(F)ccc3C2=O)cc1 (centres unmarked) [EU1180-528, 2-(1-(3,4-Dimethoxyphenyl)-2-(4-methoxyphenoxy)ethyl)-5-fluoroisoindolin-1-one] | 94 |
| COc1ccc(OCC(c2c(F)cc(OC)cc2F)N2Cc3ccc(Cl)cc3C2=O)cc1 (centres unmarked) [EU1180-548, 6-Chloro-2-(1-(2,6-difluoro-4-methoxyphenyl)-2-(4-methoxyphenoxy)ethyl)isoindolin-1-one] | 90 |
| COc1ccc(C(COc2cccc(C)n2)N2Cc3cc(Br)ccc3C2=O)c(F)c1 (centres unmarked) [EU1180-606, 5-Bromo-2-(1-(2-fluoro-4-methoxyphenyl)-2-((6-methylpyridin-2-yl)oxy)ethyl)isoindolin-1-on] | 66 |
| Cc1cccc(OCC(c2ccc(OC(C)C)cc2)N2Cc3ccc(Br)cc3C2=O)n1 (centres unmarked) [EU1180-514, 6-bromo-2-(1-(4-isopropoxyphenyl)-2-((6-methylpyridin-2-yl)oxy)ethyl)isoindolin-1-one] | 93 |
| COc1cc(F)c(C(COc2cccc(C)n2)N2Cc3cc(Cl)ccc3C2=O)c(F)c1 (centres unmarked) [EU1180-610, 5-Chloro-2-(1-(2,6-difluoro-4-methoxyphenyl)-2-((6-methylpyridin-2-yl)oxy)ethyl)isoindolin-1-one] | 76 |
| COc1ccc(C(COc2cccc(C)n2)N2Cc3ccc(Cl)cc3C2=O)c(F)c1 (centres unmarked) [EU1180-605, 6-Chloro-2-(1-(2-fluoro-4-methoxyphenyl)-2-((6-methylpyridin-2-yl)oxy)ethyl)isoindolin-1-one] | 69 |
| COc1ccc(OCC(c2ccc(OC)cc2)N2Cc3ccc(C(F)(F)F)cc3C2=O)cc1 (centres unmarked) [EU1180-518, 2-(2-(4-Methoxyphenoxy)-1-(4-methoxyphenyl)ethyl)-6-(trifluoromethyl)isoindolin-1-one] | 86 |
| COc1ccc(C(COc2cccc(C)n2)N2Cc3ccccc3C2=O)c(F)c1 (centres unmarked) [EU1180-600, 2-(1-(2-Fluoro-4-methoxyphenyl)-2-((6-methylpyridin-2-yl)oxy)ethyl)isoindolin-1-one] | 87 |
| COc1ccc(OCC(c2c(F)cc(OC)cc2F)N2Cc3cc(Br)ccc3C2=O)cc1 (centres unmarked) [EU1180-549, 5-Bromo-2-(1-(2,6-difluoro-4-methoxyphenyl)-2-(4-methoxyphenoxy)ethyl)isoindolin-1-one] | 95 |
| COc1cc(F)c(C(COc2cccc(C)n2)N2Cc3ccc(F)cc3C2=O)c(F)c1 (centres unmarked) [EU1180-614, 2-(1-(2,6-Difluoro-4-methoxyphenyl)-2-((6-methylpyridin-2-yl)oxy)ethyl)-6-fluoroisoindolin-1-one] | 57 |
| COc1ccc(OCC(c2ccc(OC)cc2F)N2Cc3ccc(F)cc3C2=O)cc1 (centres unmarked) [EU1180-537, 6-Fluoro-2-(1-(2-fluoro-4-methoxyphenyl)-2-(4-methoxyphenoxy)ethyl)isoindolin-1-one] | 66 |
| CCOc1ccc(OCC(c2ccc(OC(C)C)cc2)N2Cc3ccc(C(F)(F)F)cc3C2=O)cc1 (centres unmarked) [EU1180-587, 2-(2-(4-ethoxyphenoxy)-1-(4-isopropoxyphenyl)ethyl)-6-(trifluoromethyl)isoindolin-1-one] | 98 |
| COc1cc(F)c(C(COc2cccc(C)n2)N2Cc3cc(F)ccc3C2=O)c(F)c1 (centres unmarked) [EU1180-613, 2-(1-(2,6-Difluoro-4-methoxyphenyl)-2-((6-methylpyridin-2-yl)oxy)ethyl)-5-fluoroisoindolin-1-one] | 89 |
| CC(C)Oc1ccc(C(COc2ccc(C(F)(F)F)cc2)N2Cc3cc(Cl)ccc3C2=O)cc1 (centres unmarked) [EU1180-574, 5-chloro-2-(1-(4-isopropoxyphenyl)-2-(4-(trifluoromethyl)phenoxy)ethyl)isoindolin-1-one] | 91 |
| COc1ccc(OCC(c2ccc(OC)c(OC)c2)N2Cc3ccc(Br)cc3C2=O)cc1 (centres unmarked) [EU1180-527, 6-Bromo-2-(1-(3,4-dimethoxyphenyl)-2-(4-methoxyphenoxy)ethyl)isoindolin-1-one] | 94 |
| COc1ccc(OCC(c2ccc(OC)cc2)N2Cc3cc(Cl)ccc3C2=O)cc1 (centres unmarked) [EU1180-517, 5-Chloro-2-(2-(4-methoxyphenoxy)-1-(4-methoxyphenyl)ethyl)isoindolin-1-one] | 92 |
| COc1ccc(OCC(c2ccc(OC)cc2F)N2Cc3cc(F)ccc3C2=O)cc1 (centres unmarked) [EU1180-536, 5-Fluoro-2-(1-(2-fluoro-4-methoxyphenyl)-2-(4-methoxyphenoxy)ethyl)isoindolin-1-one] | 80 |
| COc1ccc(OCC(c2ccc(OC)cc2F)N2Cc3ccccc3C2=O)cc1 (centres unmarked) [EU1180-530, 2-(1-(2-Fluoro-4-methoxyphenyl)-2-(4-methoxyphenoxy)ethyl)isoindolin-1-one] | 41 |
| COc1ccc(OCC(c2ccc(OC)c(OC)c2)N2Cc3cc(Cl)ccc3C2=O)cc1 (centres unmarked) [EU1180-524, 5-Chloro-2-(1-(3,4-dimethoxyphenyl)-2-(4-methoxyphenoxy)ethyl)isoindolin-1-one] | 102 |
| COc1ccc(C(COc2cccc(C)n2)N2Cc3ccc(Br)cc3C2=O)cc1 (centres unmarked) [EU1180-597, 6-Bromo-2-(1-(4-methoxyphenyl)-2-((6-methylpyridin-2-yl)oxy)ethyl)isoindolin-1-one] | 69 |
| CC(C)Oc1ccc(C(COc2ccc(OC(F)(F)F)cc2)N2Cc3cc(Cl)ccc3C2=O)cc1 (centres unmarked) [EU1180-541, 5-chloro-2-(1-(4-isopropoxyphenyl)-2-(4-(trifluoromethoxy)phenoxy)ethyl)isoindolin-1-one] | 100 |
| COc1cc(F)c(C(COc2cccc(C)n2)N2Cc3ccccc3C2=O)c(F)c1 (centres unmarked) [EU1180-608, 2-(1-(2,6-Difluoro-4-methoxyphenyl)-2-((6-methylpyridin-2-yl)oxy)ethyl)isoindolin-1-one] | 70 |
| COc1ccc(C(COc2cccc(C)n2)N2Cc3cc(Cl)ccc3C2=O)cc1 (centres unmarked) [EU1180-594, 5-Chloro-2-(1-(4-methoxyphenyl)-2-((6-methylpyridin-2-yl)oxy)ethyl)isoindolin-1-one] | 73 |
| CC(C)Oc1ccc(C(COc2ccc(C(F)(F)F)cc2)N2Cc3ccc(F)cc3C2=O)cc1 (centres unmarked) [EU1180-575, 6-fluoro-2-(1-(4-isopropoxyphenyl)-2-(4-(trifluoromethyl)phenoxy)ethyl)isoindolin-1-one] | 76 |

From patent publication US20230339854A1, “Negative Allosteric Modulation of GluN3-Containing N-Methyl-D-Aspartate Receptors” (Emory University, priority 2020, published 2023)
